{"source": "patent US20250170154A1", "about": "(GreenStone Biosciences, Inc., priority 2023, published 2025)", "key": {"[1]": {"system": "mdx mice", "assay": "mdx mice, blood cytokine analysis", "type": "in vivo, mouse", "details": "20 mg/Kg/day by gavage, four-month-old mdx mice", "from_the_text": "Dis., 21, 579-589 (2011), “Duchenne muscular dystrophy (DMD) is the most common lethal X-linked recessive disorder, affecting 1 in 3500 live male births. DMD children show early symptoms of muscle degeneration, frequently develop contractures, and lose the ability to walk by 13 years of age. With disease. progression, most patients succumb to death from respiratory failure and cardiac dysfunction in early adulthood. The primary cause of this disease stems from the lack of the protein dystrophin, which is essential for the structural and functional integrity of muscle membrane. Dystrophin absence results in membrane damage, allowing massive infiltration of immune cells, chronic inflammation, necrosis, and severe muscle degeneration . . . . […] The genistein phosphate derivatives of this invention are therefore expected to be useful for the treatment of subjects with Duchenne muscular dystrophy."}, "[2]": {"system": "Myh6-Cre:FLNC^wt/F mouse", "assay": "FLNC knockout model, echocardiography", "type": "in vivo", "details": "50 mg/Kg/day by gavage for 6 weeks", "method": "The LMNA^H222P/H222P mouse is a well-established model for studying dilated cardiomyopathy and heart failure, with cardiac dysfunction typically beginning to manifest at around 16 weeks of age. In this study, 16-week-old LMNA^H222P/H222P mice underwent baseline echocardiography prior to treatment. Compound 2 was then administered continuously for 4 weeks using osmotic pumps, with DMSO as the vehicle control. At the end of the treatment period, echocardiography was performed again to assess the impact of compound 2 on cardiac function compared to the control group. […] In a FLNC knockout model using the Myh6-Cre:FLNC^wt/F mouse, 16-week-old mice underwent baseline echocardiography, were treated with compound 2 at 50 mg/Kg/day or vehicle by gavage for 6 weeks, and underwent echocardiography to assess the change in cardiac function. […] The genistein phosphate derivatives of this invention are therefore expected to be useful for the treatment of subjects with dilated cardiomyopathy."}, "[3]": {"assay": "Intestinal stability, rat intestinal S9", "type": "in vitro ADME", "method": "The stability of compounds 1 and 2, and the control compound 7-hydroxycoumarin, were measured using human, rat, and mouse intestinal S9 fractions (Xenotech). Test compound working solutions were prepared by diluting 5 μL of 10 mM stock solutions in DMSO with 495 μL AN. S9 solutions were prepared by diluting the obtained S9 solutions to 1.0 mg/mL in 100 mM potassium phosphate buffer at pH 7.4 containing 10 mM D-saccharic acid-1,4-lactone. An Apricot automation workstation was used to add 100 μL/well of S9 solution to all reaction plates (Blank, T0, T5, T15, T30, T45, T60 and NCF60); 2 μL/well of compound working solutions were added to all 96-well reaction plates except the blank (T0, T5, T15, T30, T45, T60, and NCF60); 600 μL/well of stop solution (4° C. ACN containing 200 ng/mL tolbutamide and 200 ng/mL labetalol as internal standards) was added to the T0 reaction plate; all plates were pre-incubated at 37° C. for 10 minutes; a cofactor regenerating system (98 μL/well) was added, excluding the NCF60 plate which instead received 98 μL/well of 100 mM potassium phosphate buffer. All plates were then incubated at 37° C. To terminate reactions, 600 μL/well of stop solution was applied at specific end time points. After sealing and a 10-minute shaking, plates were centrifuged at 4000 rpm and 4° C. for 20 minutes. Concurrently, 300 μL/well of HPLC grade water was loaded onto eight new 96-well bioanalysis plates. Post-centrifugation, 100 μL supernatant from each reaction plate was transferred to its corresponding bioanalysis plate, shaken for 10 minutes, and then subjected to LC-MS/MS analysis (Shimadzu LC-40D LC system coupled to a Sciex Qtrap 6500 Plus mass spectrometer, using both positive and negative ion modes)."}, "[4]": {"system": "mice with DSS-induced colitis", "assay": "DSS-induced colitis in mice", "type": "in vivo, mouse", "details": "50 mg/Kg daily by gavage", "method": "Mice, placed on a soy-free diet for 14 days, were administered 3.5% DSS in their drinking water for 8 days to induce colitis, and either untreated or treated with compound 2 at 50 mg/Kg daily by gavage from day 1 (prevention) or from day 5 (intervention); and monitored for clinical indicators of colitis, including stool consistency, rectal bleeding, and changes in body weight. […] The genistein phosphate derivatives of this invention are therefore expected to be useful for the treatment of subjects with inflammatory bowel disease, ulcerative colitis, and Crohn's disease."}, "[5]": {"assay": "Thermodynamic solubility in FaSSIF", "type": "physicochemical", "details": "thermodynamic from solid, room temperature, 24 hours shaking", "method": "After shaking, the samples were centrifuged at 25° C. for 20 minutes at 4000 rpm. Filtrates were prepared using the Whatman Mini-UniPrep Syringeless Filter Device (PTFE filter media with polypropylene housing, pore size 0.45 μm) from Cytiva, and dilutions were performed as required. Quantification of all samples was carried out using an LC-UV system."}, "[6]": {"system": "mice with cerulein-induced chronic pancreatitis", "assay": "Cerulein model of chronic pancreatitis (CP)", "type": "in vivo, mouse", "details": "100 mg/Kg daily on the last 4 weeks", "method": "Using the cerulein model, acute edematous pancreatitis was induced in two test groups of mice by eight hourly intraperitoneal injections of 50 μg/Kg cerulein, with control group mice receiving injections of physiological saline. Compound 2, at 100 mg/Kg, was administered to one of the cerulein groups by gavage 30 minutes after the first and fourth cerulein injections. Mice were sacrificed one hour after the last injection and tissues were collected for histological analysis. […] Recurrent acute pancreatitis (RAP) and chronic pancreatitis (CP) were induced by repetitive cerulein injections every third day over a span of 14 days (RAP) or 6 weeks (CP). Compound 2 was administered daily at 50 mg/Kg on the last 10 consecutive days for RAP and at 100 mg/Kg on the last 4 weeks for CP, with vehicle controls. Mice were sacrificed 1 day after the last cerulein injection and tissues were collected for histological analysis. In the CP model, the cerulein injections induced extensive acinar cell damage."}, "[7]": {"details": "both prevention and intervention modes"}}, "note": "Read-outs that look alike come from different tables or passages of the source.", "data": [{"smiles": "O=c1c(-c2ccc(O)cc2)coc2cc(OCOP(=O)(O)O)cc(O)c12", "note": "[Compound 2, ((5-Hydroxy-3-(4-hydroxyphenyl)-4-oxo-4H-chromen-7-yl)oxy)methyl dihydrogen phosphate]", "values": [{"measurement": "Leptin in blood", "setting": "[1]", "result": "significantly reduced"}, {"measurement": "blood cytokines BAFF, BTC, CCL7, CCL11, CSF3, CXCL10, IL-1α, IL-1β, IL-5, IL-10, IL-18, IL-19, IL-2RA, IL-7RA, LIF, MIP-10, MIP2, TNF-α, VEGF", "setting": "[1]", "result": "appeared to be reduced"}, {"measurement": "contractility (fractional shortening) from baseline", "setting": "[2]", "result": "statistically significantly improved"}, {"measurement": "contractility over vehicle-treated animals", "setting": "[2]", "result": "improved"}, {"measurement": "left ventricular end-diastolic diameter", "setting": "[2]; over vehicle-treated animals", "result": "reduced"}, {"measurement": "left ventricular end-systolic diameter", "setting": "[2]; over vehicle-treated animals", "result": "reduced"}, {"measurement": "normalized control factor remaining", "setting": "[3]", "result": 68.6, "unit": "%"}, {"measurement": "half-life at 1 µM", "setting": "[3]; intestinal S9 fraction, pH 7.4", "result": 48.3, "unit": "min"}, {"measurement": "microsomal CLint at 1 µM", "setting": "[3]; intestinal S9 fraction, pH 7.4, read-out: intrinsic clearance rate", "result": 28.7, "unit": "µL/min/mg"}, {"measurement": "weight loss", "setting": "[4]; both prevention (from day 1) and intervention (from day 5) modes, 3.5% DSS", "result": "reduced"}, {"measurement": "colon length", "setting": "[4]; [7]", "result": "improved"}, {"measurement": "diarrhea", "setting": "[4]; [7]", "result": "reduced"}, {"measurement": "histology of the colon", "setting": "[4]; [7]", "result": "histological improvement"}, {"measurement": "rectal bleeding", "setting": "[4]; [7]", "result": "reduced"}, {"measurement": "solubility at 24 h", "setting": "[5]; read-out: Solubility", "result": 7.82, "unit": "mM"}, {"measurement": "solubility at 24 h", "setting": "[5]; read-out: Solubility (μg/mL)", "result": 2970, "unit": "µg/mL"}, {"measurement": "overall outcome over untreated mice (histology)", "setting": "[6]", "result": "marked improvement"}, {"measurement": "acinar cell death", "setting": "[6]; vs untreated group", "result": "significant reduction"}, {"measurement": "acinar cell density", "setting": "[6]; vs untreated group", "result": "increase"}]}]}
